± gives the standard deviation of the averaged measurements.
Tested on: HSV-1 K26-GFP infected primary human skin cells
Test: % change of HSV-1 GFP signal vs untreated infected cells; higher = less antiviral inhibition
Settings: cell type: primary dermal fibroblasts, time (h post infection): 48
Protocol: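 2D primary donor-derived dermal fibroblasts infected with GFP-HSV-1 K26 at MOI 1, treated 1 h later with compound dilutions and read at 48 hpi on IncuCyte. GFP integrated intensity is normalised to mock-infected and untreated infected wells (% change; -100 = full inhibition).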

SMILES	% change of HSV-1 GFP signal (0.001 µM, donor: 3)	% change of HSV-1 GFP signal (0.001 µM, donor: 4)	% change of HSV-1 GFP signal (0.003 µM, donor: 3)	% change of HSV-1 GFP signal (0.003 µM, donor: 4)	% change of HSV-1 GFP signal (0.0091 µM, donor: 3)	% change of HSV-1 GFP signal (0.0091 µM, donor: 4)	% change of HSV-1 GFP signal (0.0274 µM, donor: 3)	% change of HSV-1 GFP signal (0.0274 µM, donor: 4)	% change of HSV-1 GFP signal (0.0823 µM, donor: 3)	% change of HSV-1 GFP signal (0.0823 µM, donor: 4)	% change of HSV-1 GFP signal (0.2469 µM, donor: 3)	% change of HSV-1 GFP signal (0.2469 µM, donor: 4)	% change of HSV-1 GFP signal (0.7407 µM, donor: 3)	% change of HSV-1 GFP signal (0.7407 µM, donor: 4)	% change of HSV-1 GFP signal (2.2222 µM, donor: 3)	% change of HSV-1 GFP signal (2.2222 µM, donor: 4)	% change of HSV-1 GFP signal (6.6667 µM, donor: 3)	% change of HSV-1 GFP signal (6.6667 µM, donor: 4)	% change of HSV-1 GFP signal (20 µM, donor: 3)	% change of HSV-1 GFP signal (20 µM, donor: 4)	% change of HSV-1 GFP signal (60 µM, donor: 3)	% change of HSV-1 GFP signal (60 µM, donor: 4)
Cc1cccc(C)c1N(CC(=O)Nc1ccc(-c2ncon2)cc1)C(=O)C1CCS(=O)(=O)CC1 [Amenamevir]	-1.82 ± 12%	-1.13 ± 3.8%	-1.99 ± 14%	-8.69 ± 7.3%	-11 ± 19%	-24.4 ± 12%	-15.9 ± 30%	-37.9 ± 16%	-29.7 ± 32%	-61.9 ± 17%	-63.1 ± 12%	-76.9 ± 11%	-89.6 ± 8.5%	-84.4 ± 4.2%	-98.8 ± 1.4%	-94.5 ± 4.5%	-99.52 ± 0.47%	-99 ± 1.2%	-99.36 ± 0.81%	-99.59 ± 0.24%		
COc1ccc(-c2nc(N3CCOCC3)c3sc(CN(C)c4ncc(C(=O)NO)cn4)cc3n2)cn1 [Fimepinostat]			27.2 ± 26%	-1.5 ± 7.9%	32.4 ± 31%	-0.607 ± 6%	30.4 ± 28%	-1.06 ± 14%	27.5 ± 28%	3.49 ± 9.3%	29.4 ± 28%	-2.47 ± 6.9%	21.4 ± 22%	-9.92 ± 24%	14.6 ± 16%	-5.85 ± 18%	11.3 ± 17%	-11.4 ± 14%	8.87 ± 9.2%	-9.02 ± 15%	7.95 ± 12%	-4.24 ± 17%
Nc1ccn([C@@H]2O[C@H](CO)[C@@H](O)C2(F)F)c(=O)n1 [Gemcitabine]	2.63 ± 9%		2.52 ± 8%	-2.11 ± 3.5%	1.9 ± 13%	-1.82 ± 3.8%	-32.1 ± 10%	-16.7 ± 10%	-96.7 ± 3.6%	-78 ± 21%	-99.824 ± 0.023%	-96.4 ± 6%	-99.797 ± 0.099%	-99.75 ± 0.28%	-99.74 ± 0.14%	-99.81 ± 0.17%	-99.76 ± 0.19%	-99.83 ± 0.13%	-99.73 ± 0.18%	-99.907 ± 0.068%		
CC(C)c1cnn2c(NCc3ccccc3-n3cccn3)nc(OC3CCCNC3)nc12 (stereo not drawn) [LDC4297]			20.9 ± 32%		21.8 ± 34%	2.39 ± 18%	21.6 ± 34%	1.27 ± 22%	14.2 ± 35%	-5.21 ± 23%	-5.39 ± 37%	-24 ± 20%	-27.1 ± 25%	-34.7 ± 12%	-57.2 ± 13%	-53.3 ± 1.5%	-98.3 ± 1.2%	-92.4 ± 3.9%	-100.3 ± 0.64%	-99.916 ± 0.033%	-100.3 ± 0.73%	-99.83 ± 0.18%
O=C(Nc1ccc([N+](=O)[O-])cc1Cl)c1cc(Cl)ccc1O [Niclosamide]			15.6 ± 15%	-6.77 ± 3.6%	8.69 ± 12%	-8.38 ± 4.5%	9.83 ± 17%	-13.9 ± 6.8%	-4.14 ± 13%	-18.7 ± 8.7%	-45.2 ± 31%	-48.5 ± 15%	-76.3 ± 20%	-63.1 ± 35%	-89.3 ± 9.7%	-95.5 ± 6.9%	-99.57 ± 0.93%	-99.828 ± 0.074%	-100.1 ± 0.58%	-99.921 ± 0.007%	-100.1 ± 0.63%	-99.98 ± 0.017%
Cc1nc(N(C)C(=O)Cc2ccc(-c3ccccn3)cc2)sc1S(N)(=O)=O [Pritelivir]	4.72 ± 8.3%	1.2 ± 5.1%	1.04 ± 12%	-0.451 ± 6.2%	-2.12 ± 11%	-4.4 ± 5%	-9.3 ± 18%	-16.7 ± 3.4%	-30 ± 18%	-36.8 ± 14%	-61 ± 13%	-74.4 ± 9.5%	-81.3 ± 8.3%	-91.2 ± 7.4%	-90.9 ± 9.8%	-99.47 ± 0.72%	-93.7 ± 8.7%	-99.82 ± 0.19%	-98.48 ± 0.79%	-99.71 ± 0.27%		
CC1(C)CC(=O)c2c(C(F)(F)F)nn(-c3ccc(C(N)=O)c(N[C@H]4CC[C@H](O)CC4)c3)c2C1 [SNX-2112]	3.58 ± 4.6%	7.21 ± 14%	2.41 ± 10%	7.68 ± 19%	3.09 ± 24%	10 ± 30%	-21.5 ± 25%	-8.2 ± 12%	-87.9 ± 5.2%	-77.6 ± 1.4%	-98.67 ± 0.4%	-98.8 ± 1%	-99.34 ± 0.5%	-99.59 ± 0.4%	-99.32 ± 0.49%	-99.73 ± 0.3%	-99.47 ± 0.27%	-99.66 ± 0.37%	-99.48 ± 0.42%	-99.71 ± 0.22%		
O=C(/C=C\n1cnc(-c2cc(C(F)(F)F)cc(C(F)(F)F)c2)n1)NNc1ccccn1 [Verdinexor]	2.8 ± 12%	-3.59 ± 3.6%	3.24 ± 5.4%	-6.87 ± 5.1%	5.63 ± 4.6%	-5.59 ± 9.3%	3.47 ± 1.8%	-11.5 ± 8.2%	-1.6 ± 11%	-10.8 ± 5.7%	-1.84 ± 3.6%	-12 ± 2.1%	-13.6 ± 4%	-15.2 ± 4.7%	-31.7 ± 6%	-33.3 ± 11%	-34.8 ± 8.4%	-32.3 ± 15%	-49 ± 24%	-21.8 ± 2.3%		
